pIC50: −log10 of the molar value.
Columns and labels:
oxytocin receptors = target: T1, oxytocin receptors (Rattus norvegicus, UniProt P70536); assay: Oxytocin Receptor Binding; conditions: for pIC50: 1.0 nM [3H]oxytocin
T1 construct: The uteri are dissected out, cleaned of fat and connective tissues; from tissue; host or cells: uterus of DES-treated female Sprague-Dawley rats
T1 sequence (P70536 1-388): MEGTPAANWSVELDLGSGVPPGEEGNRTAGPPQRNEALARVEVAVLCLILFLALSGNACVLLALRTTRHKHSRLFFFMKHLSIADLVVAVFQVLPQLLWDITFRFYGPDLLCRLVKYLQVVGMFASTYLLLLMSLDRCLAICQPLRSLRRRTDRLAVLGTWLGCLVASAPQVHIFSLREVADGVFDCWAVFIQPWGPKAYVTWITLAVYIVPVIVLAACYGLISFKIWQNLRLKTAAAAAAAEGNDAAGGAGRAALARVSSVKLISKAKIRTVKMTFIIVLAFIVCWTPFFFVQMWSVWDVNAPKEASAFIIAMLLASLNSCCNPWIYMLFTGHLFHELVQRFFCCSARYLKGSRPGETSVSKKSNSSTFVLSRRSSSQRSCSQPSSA
Procedure: Oxytocin Receptor Binding
Female Sprague-Dawley rats weighing approximately 200-250 g are injected intramuscularly (i.m.) with 0.3 mg/kg of body weight of diethylstilbestrol (DES). The rats are sacrificed 18 hours later under pentobarbital anesthesia. The uteri are dissected out, cleaned of fat and connective tissues and rinsed in 50 ml of normal saline. The tissue pooled from six rats is homogenized in 50 ml of […] Tris.HCl, containing 0.5 mM dithiothreitol and 1.0 mM EDTA, adjusted to pH 7.4, using a polytron at setting 6 with three passes of 10 sec each. The homogenate is passed through two (2) layers of cheesecloth and the filtrate centrifuged at 1000× g for 10 min. The clear supernatant is removed and recentrifuged at 165,000× g for 30 min. The resulting pellet containing the oxytocin receptors is resuspended in 50.0 mM Tris.HCl containing 5.0 mM MgCl2 at pH 7.4, to give a protein concentration of 2.5 mg/ml of tissue suspension. This preparation is used in subsequent binding assays with [^3 H]Oxytocin.
Binding of 3,5-[^3 H]Oxytocin ([^3 H]OT) to its receptors is done in microtiter plates using [^3 H]OT, at various concentrations, in an assay buffer of 50.0 mM Tris.HCl, pH 7.4 and containing 5.0 mM MgCl2, and a mixture of protease inhibitors: BSA, 0.1 mg; aprotinin, 1.0 mg; 1,10-phenanthroline, 2.0 mg; […], 10.0 mg; and PMSF, 0.3 mg per 100 ml of buffer solution. Non-specific binding is determined in the presence of 1.0 uM unlabeled OT. The binding reaction is terminated after 60 min , at 22° C. by rapid filtration through glass fiber filters using a Brandel® cell harvester (Biomedical Research and Development Laboratories, Inc., Gaithersburg, Md.). Competition experiments are conducted at equilibrium using 1.0 nM [^3 H]OT and varying the concentration of the displacing agents. The concentrations of agent displacing 50% of [^3 H]OT at its sites (IC50) are calculated by a computer assisted LUNDON-2 program (LUNDON SOFTWARE INC., Ohio, USA).

Vasopressin V2 = Vasopressin V2 Antagonist Activity in Conscious Hydrated Rats; format: in vivo, rat; conditions: AVP 0.4 μg/kg i.p.
Procedure: Vasopressin V2 Antagonist Activity in Conscious Hydrated Rats
Conscious hydrated rats are treated with compounds under study from 0.1 to 100 mg/kg orally or vehicle. Two to four rats are used for each compound. One hour later, arginine vasopressin (AVP, antidiuretic hormore, ADH) dissolved in peanut oil is administered at 0.4 μg/kg intraperitoneally. Two rats in each test would not receive arginine vasopressin but only the vehicle (peanut oil) to serve as water-loading control. Twenty minutes later each rat is given 30 mL/kg of deionized water orally by gavage and is placed individually in a metabolic cage equipped with a funnel and a graduated glass cylinder to collect urine for four hours. Urine volume is measured and osmolality analyzed by use of a Fiske One-Ten osmometer (Fiske Assoc., Norwood, Mass., USA). Urinary sodium, potassium, and chloride are analyzed by use of ion-specific electrodes in a Beckman E3 (Electrolyte 3) Analyzer.

Vasopressin V1 = Vasopressin V1 Antagonist Activity in Conscious Rats (vasopressin vasopressor response); format: in vivo, rat; conditions: 10 mg/kg i.v.
Procedure: Vasopressin V1 Antagonist Activity in Conscious Rats
Conscious rats are restrained in a supine position with elastic tape. The area at the base of the tail is locally anesthetized by subcutaneous infiltration with 2% procaine (0.2 ml). Using aseptic technique the ventral caudal tail artery is isolated and a cannula made of PE 10 and 20 (heat-fused) tubing is passed into the lower abdominal aorta. The cannula is secured, heparinized (1000 i.u./cc), sealed and the wound closed with one or two stitches of Dexon 4-0. The caudal vein is also cannulated in the same manner for intravenous drug administration. The duration of the surgery is approximately 5 minutes. Additional local anesthesia (2% procaine or lidocaine) is provided as needed.
The animals are placed in plastic restraining cages in an upright position. The cannula is attached to a Statham P23Db pressure transducer and pulsatile blood pressure is recorded. […] The vasopressin injections are repeated 30,60,90,120,180,240 and 300 min. later. Percentage of antagonism by the compound is calculated using the pre-drug vasopressin vasopressor response as 100%.

Compound	inhibition at 10 µM (oxytocin receptors; dose 10 μM, [3H]oxytocin)	pIC50 (oxytocin receptors)	other results
CCOC(=O)c1ccc2n1Cc1ccccc1N(C(=O)c1ccc([N+](=O)[O-])c(C)c1)C2 [Example 444, ethyl 10,11-dihydro-10-(3-methyl-4-nitrobenzoyl)-5H-pyrrolo[2,1-c][1,4]-benzodiazepine-3-carboxylate]	21%		
Cc1cc(C(=O)N2Cc3ccc(C(=O)C(Cl)(Cl)Cl)n3Cc3ccccc32)ccc1[N+](=O)[O-] [Example 448]	11%		
O=C(c1ccc([N+](=O)[O-])cc1)N1Cc2ccc(C(=O)C(Cl)(Cl)Cl)n2Cc2ccccc21 [Example 449, 10,11-dihydro-10-(4-nitrobenzoyl)-[3-(trichloroacetyl)]-5H-pyrazolo[2,1-c]-[1,4]benzodiazepine]	14%		
O=C(c1ccc([N+](=O)[O-])cc1Cl)N1Cc2ccc(C(=O)C(Cl)(Cl)Cl)n2Cc2ccccc21 [Example 450, 10,11-dihydro-10-(2-chloro-4-nitro-benzoyl)-[3-(trichloroacetyl)]-5H-pyrrolo[2,1-c][1,4]benzodiazepine]	22%		
O=C(c1ccc([N+](=O)[O-])cc1)N1Cc2ccc(C(=O)C(F)(F)F)n2Cc2ccccc21 [Example 451, 10,11-Dihydro-10-(4-nitrobenzoyl)-[3-(trifluoroacetyl)]-5H-pyrrolo[2,1-c][1,4]benzodiazepine]	43%		
O=C(c1ccc([N+](=O)[O-])cc1Cl)N1Cc2ccc(C(=O)C(F)(F)F)n2Cc2ccccc21 [Example 452, 10,11-dihydro-10-(2-chloro-4-nitro-benzoyl)[3-(trifluoroacetyl)]-5H-pyrrolo[2,1-c][1,4]benzodiazepine]	36%		
COc1cc(C(=O)N2Cc3cccn3Cc3ccccc32)ccc1[N+](=O)[O-] [Example 455, 10,11-Dihydro-10-(3-methoxy-4-nitrobenzoyl)-5H-pyrrolo[2,1-c][1,4]benzodiazepine]	75%	5.54	
COc1cc(C(=O)N2Cc3cccn3Cc3ccccc32)ccc1N [Example 460, 10,11-Dihydro-10-(4-amino-3-methoxybenzoyl)-5H-pyrrolo[2,1-c][1,4]benzodiazepine]	77%	5.51	
Nc1ccc(C(=O)N2Cc3ccc(C(=O)C(F)(F)F)n3Cc3ccccc32)cc1 [Example 462, 10,11-dihydro-10-(4-aminobenzoyl)[3-(trifluoroacetyl)]-5H-pyrrolo[2,1-c]-[1,4]benzodiazepine]	14%		
CCOC(=O)c1ccc2n1Cc1ccccc1N(C(=O)c1ccc(N)c(C)c1)C2 [Example 463, ethyl 10,11-dihydro-10-(4-amino-3-methylbenzoyl)-5H-pyrrolo[2,1-c]-[1,4]benzodiazepine-3-carboxylate]	55%	5.07	
CCOC(=O)c1ccc2n1Cc1ccccc1N(C(=O)c1ccc(N)cc1)C2 [Example 464, ethyl 10,11-dihydro-10-(4-aminobenzoyl)-5H-pyrrolo[2,1-c][1,4]benzodiazepine-3-carboxylate]	71%	5.62	
Cc1ccc(F)cc1C(=O)Nc1ccc(C(=O)N2Cc3cccn3Cc3ccccc32)cc1 [Example 465, N-[4-(5H-Pyrrolo[2,1-c][1,4]benzodiazepin-10(11H)-ylcarbonyl)phenyl]-5-fluoro-2-methylbenzamide]	93%	7.48	Osmolality (Vasopressin V2; 10 mg/kg orally): 361 mOsm/kg; Urine Volume (Vasopressin V2; 10 mg/kg orally): 21.8 ml/4 hrs; Max. % Inhibition (Vasopressin V1): 85%; Time (of max. % inhibition) (Vasopressin V1): 90 min
CCOC(=O)c1ccc2n1Cc1ccccc1N(C(=O)c1ccc(NC(=O)c3ccc(Cl)cc3Cl)cc1)C2 [Example 596, Ethyl 10-[4-[(2,4-dichlorobenzoyl)amino]benzoyl]-10,11-dihydro-5H-pyrrolo[2,1-c][1,4]benzodiazepine-3-carboxylate]	86%	5.40	Osmolality (Vasopressin V2; 10 mg/kg orally): 1347 mOsm/kg; Urine Volume (Vasopressin V2; 10 mg/kg orally): 2.8 ml/4 hrs
N-[4-(4H-Pyrazolo[5,1-c][1,4]benzo-diazepin-5(10H)-ylcarbonyl)phenyl]-2-methoxybenzeneacetamide [Example 215]		6.24	Osmolality (Vasopressin V2; 30 mg/kg orally): 1520 mOsm/kg; Urine Volume (Vasopressin V2; 30 mg/kg orally): 0.7 ml/4 hrs; % Inhibition at 10 μM (oxytocin receptors; dose 10 μM, [3H]oxytocin): 74%
